Results taken from patent publication US11124523B2, “2,6-dioxaspiro [4,5] decane derivatives and preparation method therefor and pharmaceutical applications thereof” (SHANDONG LUYE PHARMACEUTICAL CO., LTD., priority 2017, dated 2021).
Where a name gives a salt, the structure may show the parent alone.

Legend:
[1] = molecular target: T1, human μ-subtype opioid receptor (hMOR) (Homo sapiens (Human), UniProt P35372); test: MOR cAMP agonist activity test; format: cell-based; details: for Emax: maximum effect of enkephalin DAMGO was 100%
Method: Test 1: MOR cAMP Agonist Activity Test
1.1 Experimental Purpose: To test the cAMP agonist activity of the compounds of the present disclosure on the human μ-subtype opioid receptor (hMOR).
a. Compound samples were dissolved in DMSO to a storage concentration of 10 mM.
(§1) b. A series of diluted samples were formulated on a 384-well LDV plate. A total of 11 concentration points were obtained by 3.162-fold gradient dilution.
c. The series of diluted samples were transferred to an experimental plate (Corning-3824) by using an Echo machine, wherein 30 nL was transferred corresponding to each well.
The experiment was performed using a cAMP detection kit from Cisbio (Cisbio #62AM4PEJ).
a. Assay buffer and stimulation buffer (STB) required for the experiment were formulated.
Stimulation Buffer: formulated with the assay buffer, containing 5 μM NKH477 (CAS: 138605-00-2) and 200 μM IBMX (3-isobutyl-1-methylxanthine)
b. […] The number of cells in the well was 10,000 cells/well.
c. The experimental plate was placed in a 37° C. constant-temperature incubator for incubation. The incubation was performed for 40 minutes.
d. A cAMP standard concentration curve was prepared. The first concentration point was at 2848 nM, and a total of sixteen detection concentrations were obtained by 4-fold gradient dilution. There were three replicates for each concentration point.
e. The cAMP detection kit from Cisbio was provided therein with a d2-labeled cAMP reagent (d2 reagent) and an Eu-labeled cAMP antibody reagent (Crypate reagent). The above two reagents were formulated according to the kit instructions, and then added to the sample experimental plate and to the cAMP standard concentration experimental plate, respectively. It was necessary to add 5 μL of the d2 reagent and then 5 μL of the Cryptate reagent to each well.
f. After the experimental plates were left at room temperature for 60 minutes, the experimental plates were read on the Envision.

[2] = molecular target: T1, human μ-subtype opioid receptor (hMOR); test: MOR β-arrestin-2 agonist activity test; format: cell-based; details: for EC50: >30000 nM = greater than the highest detection concentration, read-out: MOR β-arrestin-2 EC50; for Emax: maximum effect of enkephalin DAMGO was 100%, about 0% = no actual agonist activity
Method: Test 2: β-Arrestin-2 Agonist Activity Test
2.1 Experimental Purpose: To test the β-arrestin-2 agonist activity of the compounds of the present disclosure on the human μ-subtype opioid receptor (hMOR).
a. All samples were dissolved in DMSO to a storage concentration of 10 mM.
as §1
c. The series of diluted samples were transferred to an experimental plate by using an Echo machine, wherein 60 nL of the compound was transferred corresponding to each well.
d. 60 nL of 3.33 mM DAMGO (as HPE) and 60 nL of DMSO (as ZPE) were transferred to the corresponding positions on the experimental plate by using the Echo machine.
The experiment was performed using PathHunter Detection Kit from DiscoveRX Cooperation (DiscoveRX #93-0213C3)
a. Assay buffer and PathHunter detection reagent required for the experiment were formulated.
Assay Buffer: 1×DPBS buffer
PathHunter Detection Reagent: The kit was provided therein with three constituents.
c. The experimental plate was centrifuged at 300 rpm for 30 s and incubated at room temperature for 2 hours.
d. 6 μL of the PathHunter detection reagent was added to each well of the experimental plate.
e. The experimental plate was centrifuged at 300 rpm for 30 seconds, then left at room temperature for 60 minutes, and then read on the Envision.

[3] = Metabolic stability in liver microsomes; format: in vitro ADME; details: pH 7.4; human liver microsomes 0.5 mg protein/mL; 45 mg microsome protein/g liver, 20 g liver/kg; read-out: Intrinsic Clearance CLint(liver) in Human Liver
Method: Test 3: Metabolic Stability in Liver Microsomes
3.1 Experimental Purpose: To test the metabolic stability of the compounds of the present disclosure in human liver microsomes
a. All samples as well as testosterone, diclofenac and propafenone acting as reference substances were dissolved in DMSO to a storage concentration of 10 mM.
b. Intermediate Solution: 5 μL of the substance to be tested or the reference substance was diluted with 45 μL of DMSO (with 450 μL of 1:1 methanol/water).
c. Working Solution: the intermediate solution was diluted with 450 μL of 100 mM potassium phosphate buffer solution (pH 7.4).
Assay Buffer: 100 mM potassium phosphate buffer (pH 7.4) • 10 mM MgCl2
Liver Microsome Solution (final concentration: 0.5 mg protein/mL):
Human liver microsomes, obtained from BD, Cat No. 452117, Lot No. 38291
b. 10 μL of the working solution containing the substance to be tested or the reference substance was added to each of plates (T0, T5, T10, T20, T30, T60, NCF60).
c. The liver microsome solution was dispensed into a 96-well plate in an amount of 680 μL/well, then 80 was added, and then T was added to each of the plates. The above incubation plate was placed at 37° C. and pre-incubated for approximately 10 minutes.
d. 10 μL of 100 mM potassium phosphate buffer was added to each well in the NCF60 plate.
e. After the pre-incubation was finished, the NADPH regeneration system working solution was dispensed into the 96-well plate in an amount of 90 μL/well, and then added to each of the plates in an amount of 10 μL/well to start the reaction.
f. The plates were incubated for an appropriate time (e.g., 5, 10, 20, 30, or 60 minutes).
g. The stop solution (refrigerated at 4° C., containing 100 ng/mL Tolbutamide and 100 ng/mL Labetalol) was added to each sample well in an amount of 300 μL/well.
h. The sample plates were shaken well for about 10 minutes and centrifuged at 4,000 rpm for 20 minutes at 4° C. During the centrifugation, 300 μL of HPLC water was added to each well, and 100 μL of the supernatant was taken for LC-MS/MS analysis.
T1/2 and Clint(mic) were calculated by the following formula: […]
Each gram of liver contained 45 mg of microsome protein, and the liver weight was 20 g/kg in a human.
Ct was the concentration at time t, t was the incubation time, C0 was the concentration at time 0, Ke was an elimination rate constant, Clint(mic) was the intrinsic clearance in liver microsomes, and Clint(liver) was the intrinsic clearance in liver. CLint(mic)=0.693/half-life/mg of microsome protein per mL(concentration of microsomes during incubation) CLint(liver)=CLint(mic)×mg of microsome protein/g of liver weight×a ratio of liver weight to body weight 3.4 Test Results

[4] = molecular target: CYP2C9 (Homo sapiens (Human), UniProt P11712); test: Inhibition of cytochrome P450 isoenzymes, CYP2C9; format: in vitro ADME; details: >50 μM: inhibitory effect less than 50% at 50 μM; read-out: CYP 2C9 IC50
Chain of CYP2C9 (P11712 whole entry, canonical isoform): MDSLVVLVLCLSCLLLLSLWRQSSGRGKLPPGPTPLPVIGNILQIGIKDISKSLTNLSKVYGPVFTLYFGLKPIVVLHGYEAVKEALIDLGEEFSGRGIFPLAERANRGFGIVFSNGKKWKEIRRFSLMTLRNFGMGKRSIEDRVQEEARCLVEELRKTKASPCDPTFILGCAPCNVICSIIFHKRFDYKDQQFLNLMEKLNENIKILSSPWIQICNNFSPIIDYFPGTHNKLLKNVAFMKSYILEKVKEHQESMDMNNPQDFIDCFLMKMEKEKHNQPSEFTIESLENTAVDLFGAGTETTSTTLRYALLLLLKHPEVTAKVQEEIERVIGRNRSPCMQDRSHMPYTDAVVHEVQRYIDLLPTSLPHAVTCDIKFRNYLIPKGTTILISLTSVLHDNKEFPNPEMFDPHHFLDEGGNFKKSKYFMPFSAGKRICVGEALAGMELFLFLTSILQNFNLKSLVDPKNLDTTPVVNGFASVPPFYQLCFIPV
Method: (§2) 4.1 Experimental Purpose: To test the inhibitory effects of the compounds of the present disclosure on different isoforms of human cytochrome P450 isoenzymes
(§3) 1) The activities of CYP1A2, 2C9, 2C19, 2D6, and 3A4 were measured using a standard substrate method. In each reaction, the enzyme activities were measured in the presence and absence of the substance to be tested, wherein a single sample was measured at a total of eight test concentrations. A 5-in-1 mixed inhibitor was used.
(§4) 2) An incubation matrix comprising microsomes, a substrate, and an inhibitor or the compound to be tested was pre-incubated at 37° C. for 5 minutes, and then NADPH was added to start the reaction.
(§5) 3) After the incubation, acetonitrile with an internal standard was added to stop the reaction.
(§6) 4) Metabolites generated by the substrates were measured by using the LC-MS/MS method, and the peak area ratio of each metabolite to the internal standard was evaluated and the inhibition rate and IC50 were calculated.

[5] = molecular target: CYP2C19 (Homo sapiens (Human), UniProt P33261); test: Inhibition of cytochrome P450 isoenzymes, CYP2C19; format: in vitro ADME; details: >50 μM: inhibitory effect less than 50% at 50 μM; read-out: CYP 2C19 IC50
Chain of CYP2C19 (P33261 whole entry): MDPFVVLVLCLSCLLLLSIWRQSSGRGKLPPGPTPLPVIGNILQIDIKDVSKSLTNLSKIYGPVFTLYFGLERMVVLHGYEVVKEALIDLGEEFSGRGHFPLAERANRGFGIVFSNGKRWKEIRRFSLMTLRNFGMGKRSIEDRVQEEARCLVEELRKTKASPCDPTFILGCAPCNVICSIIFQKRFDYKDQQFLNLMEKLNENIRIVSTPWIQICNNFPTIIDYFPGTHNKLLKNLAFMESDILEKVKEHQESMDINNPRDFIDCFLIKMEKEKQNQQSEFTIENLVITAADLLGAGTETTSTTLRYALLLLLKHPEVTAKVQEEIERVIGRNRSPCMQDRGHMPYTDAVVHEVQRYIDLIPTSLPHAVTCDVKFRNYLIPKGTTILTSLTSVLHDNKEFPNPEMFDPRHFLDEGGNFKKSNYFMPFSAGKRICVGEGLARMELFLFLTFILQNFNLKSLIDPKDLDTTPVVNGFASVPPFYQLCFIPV
Method: as §2, §3, §4, §5, §6

[6] = molecular target: CYP2D6 (Homo sapiens (Human), UniProt P10635); test: Inhibition of cytochrome P450 isoenzymes, CYP2D6; format: in vitro ADME; details: read-out: CYP 2D6 IC50
Chain of CYP2D6 (P10635 whole entry): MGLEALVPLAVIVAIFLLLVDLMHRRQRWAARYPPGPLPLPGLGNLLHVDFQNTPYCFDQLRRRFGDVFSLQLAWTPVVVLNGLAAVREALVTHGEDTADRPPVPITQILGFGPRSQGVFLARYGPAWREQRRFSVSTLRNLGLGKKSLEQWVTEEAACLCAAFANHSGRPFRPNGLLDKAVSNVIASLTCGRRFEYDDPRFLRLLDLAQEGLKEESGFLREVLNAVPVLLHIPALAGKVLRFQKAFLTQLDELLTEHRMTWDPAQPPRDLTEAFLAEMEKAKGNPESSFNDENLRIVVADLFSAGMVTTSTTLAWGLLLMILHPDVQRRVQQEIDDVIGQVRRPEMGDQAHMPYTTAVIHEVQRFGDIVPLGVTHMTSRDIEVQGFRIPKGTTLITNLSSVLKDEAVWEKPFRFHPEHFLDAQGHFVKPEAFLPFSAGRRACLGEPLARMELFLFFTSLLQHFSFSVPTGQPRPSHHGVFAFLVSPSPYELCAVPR
Method: as §2, §3, §4, §5, §6

[7] = molecular target: CYP3A4 (Homo sapiens (Human), UniProt P08684); test: Inhibition of cytochrome P450 isoenzymes, CYP3A4; format: in vitro ADME; details: >50 μM: inhibitory effect less than 50% at 50 μM; read-out: CYP 3A4 IC50
Chain of CYP3A4 (P08684 whole entry): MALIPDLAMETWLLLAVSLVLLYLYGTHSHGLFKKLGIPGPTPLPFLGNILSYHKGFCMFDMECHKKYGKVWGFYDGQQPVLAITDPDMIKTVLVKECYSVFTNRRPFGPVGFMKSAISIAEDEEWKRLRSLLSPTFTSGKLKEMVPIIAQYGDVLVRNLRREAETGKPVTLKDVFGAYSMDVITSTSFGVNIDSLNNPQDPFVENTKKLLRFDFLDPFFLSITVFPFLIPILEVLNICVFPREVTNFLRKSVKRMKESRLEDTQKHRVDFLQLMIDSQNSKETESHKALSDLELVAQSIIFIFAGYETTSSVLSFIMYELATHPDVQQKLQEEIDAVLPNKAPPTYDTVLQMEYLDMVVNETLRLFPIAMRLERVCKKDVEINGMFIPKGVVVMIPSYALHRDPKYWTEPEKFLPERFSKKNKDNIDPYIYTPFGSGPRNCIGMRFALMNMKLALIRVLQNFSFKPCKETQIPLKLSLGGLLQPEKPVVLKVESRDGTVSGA
Method: as §2, §3, §4, §5, §6

[8] = molecular target: hERG potassium channels (Homo sapiens (Human), UniProt Q12809); test: Effects on hERG potassium channels (Qpatch, CHO-hERG cells); format: cell-based; details: highest test concentration 40 μM, read-out: IC50 representing the blocking effects of hERG potassium currents
Chain of hERG potassium channels (Q12809 whole entry): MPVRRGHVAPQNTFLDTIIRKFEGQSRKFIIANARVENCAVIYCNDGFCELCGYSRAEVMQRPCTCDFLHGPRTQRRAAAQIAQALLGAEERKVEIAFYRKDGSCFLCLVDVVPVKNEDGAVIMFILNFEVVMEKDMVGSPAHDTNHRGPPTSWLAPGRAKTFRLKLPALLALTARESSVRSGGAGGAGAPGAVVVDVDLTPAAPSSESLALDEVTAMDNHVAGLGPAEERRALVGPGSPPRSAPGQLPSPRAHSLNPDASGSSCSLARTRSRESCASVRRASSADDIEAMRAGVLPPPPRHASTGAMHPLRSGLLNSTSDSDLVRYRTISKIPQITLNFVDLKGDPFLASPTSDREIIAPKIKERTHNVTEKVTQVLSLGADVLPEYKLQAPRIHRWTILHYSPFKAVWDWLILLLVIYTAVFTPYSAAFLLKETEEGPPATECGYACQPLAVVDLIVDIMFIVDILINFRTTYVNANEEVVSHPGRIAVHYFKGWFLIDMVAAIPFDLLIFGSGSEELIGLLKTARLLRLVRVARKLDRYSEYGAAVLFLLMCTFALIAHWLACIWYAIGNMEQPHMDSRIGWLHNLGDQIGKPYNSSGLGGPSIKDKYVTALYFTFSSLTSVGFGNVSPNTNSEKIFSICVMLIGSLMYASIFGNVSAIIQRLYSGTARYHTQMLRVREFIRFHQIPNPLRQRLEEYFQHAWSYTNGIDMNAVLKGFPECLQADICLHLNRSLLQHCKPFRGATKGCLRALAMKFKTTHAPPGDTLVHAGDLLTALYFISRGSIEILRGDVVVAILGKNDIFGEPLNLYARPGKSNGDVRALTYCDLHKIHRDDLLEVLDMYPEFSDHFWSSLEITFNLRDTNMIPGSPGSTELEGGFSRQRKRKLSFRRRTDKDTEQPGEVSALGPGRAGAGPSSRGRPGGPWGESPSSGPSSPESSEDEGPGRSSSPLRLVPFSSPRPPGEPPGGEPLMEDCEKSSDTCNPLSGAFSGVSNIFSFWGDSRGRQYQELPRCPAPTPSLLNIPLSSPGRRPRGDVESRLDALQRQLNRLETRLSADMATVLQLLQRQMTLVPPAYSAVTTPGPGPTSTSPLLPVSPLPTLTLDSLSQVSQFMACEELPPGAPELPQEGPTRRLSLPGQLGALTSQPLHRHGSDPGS
Method: 5.1 Experimental Purpose: To test the blocking effects of the compounds of the present disclosure on hERG potassium currents.
a. CHO-hERG cells were cultured in a 175 cm^2 culture flask. When the cells were grown to a density of 60 to 80%, the culture solution was removed, and the cells were washed once with 7 mL of PBS (phosphate buffer solution), and then 3 mL of a cell digestion solution (Detachin) was added for digestion of the cells.
b. After completely digested, the cells were neutralized by adding 7 mL of the culture solution and then centrifuged, the supernatant was removed, and then 5 mL of the culture solution was added for resuspension to ensure a cell density of 2 to 5×10^6 cells/mL.
The single-cell high-impedance sealing and whole-cell pattern formation processes were both carried out automatically by the Qpatch instrument. After the whole-cell recording pattern was obtained, the cells were clamped at −80 millivolts. A preceding voltage of −50 millivolts was applied for 50 milliseconds prior to application of a depolarizing stimulus of +40 millivolts for 5 seconds, and then the cells were repolarized to −50 millivolts and maintained for 5 seconds and then returned back to −80 millivolts. This voltage stimulation was applied every 15 seconds, and data were recorded for 2 minutes, and thereafter the extracellular fluid was administered and data were recorded for 5 minutes, and then the administration process was started. The compound was administered for 2.5 minutes at each test concentration from the lowest test concentration. After all the concentrations of the compound were administered, […] of Cisapride was administered as a positive comparative compound. At least three cells (n>3) were tested for each concentration.
a. A 20 mM compound mother solution was diluted with the extracellular fluid, wherein 5 μL of the 20 mM compound mother solution was taken and diluted 500 times to 40 μM by adding 2495 μL of the extracellular fluid thereto, and then 3-fold serial dilutions were performed sequentially in the extracellular fluid containing 0.2% DMSO to obtain a final concentration to be tested.
b. The highest test concentration was 40 μM, and there were six concentrations in total, i.e., 40, 13.33, 4.44, 1.48, 0.49, and 0.16 μM, respectively.
c. The DMSO content in the final test concentration was not more than 0.2%. This concentration of DMSO had no effect on the hERG potassium channel.
The experimental data were analyzed by XLFit software.

SMILES	EC50 [1] [µM]	Emax [1] [%]	EC50 [2] [µM]	Emax [2] [%]	CLint scaled [3] [mL/min/kg]	IC50 [4] [µM]	IC50 [5] [µM]	IC50 [6] [µM]	IC50 [7] [µM]	IC50 [8] [µM]
Clc1cccc(CNCC[C@@]2(c3ccccn3)CCO[C@]3(CCOC3)C2)c1 [(+)-8]	0.0018	85.3	> 30	~0	10	> 50	> 50	17.3	> 50	–
Cc1cccc(CNCC[C@@]2(c3ccccn3)CCO[C@]3(CCOC3)C2)c1 [(+)-9]	0.0061	88.9	> 30	~0	8.8	> 50	> 50	23.4	21.9	–
Fc1cc(Cl)cc(CNCC[C@@]2(c3ccccn3)CCO[C@]3(CCOC3)C2)c1 [(+)-18]	0.0042	87.7	> 30	~0	84.9	> 50	> 50	24.5	> 50	–
Fc1ccc([C@]2(CCNCc3cccc(Cl)c3)CCO[C@]3(CCOC3)C2)nc1 [Hydrochloride Salt of (+)-16]	–	–	–	–	–	–	–	–	–	22.8
